In brackets after ≈: the same amount, converted by molar mass.
Experiments:
adenovirus = test: Inhibition of adenovirus cytopathic effect in Vero cells; format: cell-based, adenoviruses 5 and 7; details: 1-100 μg, 24 h
Experimental: (§1) The ability of KY compounds to inhibit cell infection by a rhinovirus and adenoviruses 5 and 7 which are non-enveloped viruses, was similarly studied. Vero cells (10^5) were infected with a rhinovirus in the presence of KY-1, at concentrations ranging between 1-100 μg. Twenty-four hours after virus infection, the cells were examined for cytopathic effect, evidencing viral infection.
Vero cells were infected with adenovirus in the presence of KY-1, also at concentrations ranging between 1-100 μg, and twenty-four hours after virus infection, the cells were examined for cytopathic effect.

HSV-1 and HSV-2 = test: Viral yield inhibition, HeLa cells, plaque count on Vero cells; details: up to 10 μg/ml, FIGS. 29A and 29B, depending on drug and virus
Experimental: The ability of selected naphthalene-subunit compounds to inhibit HSV-1 and HSV-2 viral yields at selected drug concentrations up to 10 μg/ml was assessed in the viral inhibition assay described in Example 7. Briefly, cultured Hela cells were exposed to serially diluted KY compound and virus, allowed to grow for 24 hours, then freeze/thawed 3 times to release virus particles. Vero cells were infected serial dilutions of the viral lysates were assayed for plaque counts as described in Example 6.
1×10^6 HeLa S3 were plated in 25 T flasks in 5 ml RPMI-1640+5% FCS+P/S. 24 hours later, the medium was aspirated and replaced with 6×10^6 PFU HSV-1 or HSV-2, and serial dilutions of selected KY compounds, at 10, 5, 2.5, 1.25, and 0.625 μg/ml drug. After growth at 37° C. for 24 hours in 2 ml of RPMI-1640 containing 2% FCS and P/S, the cells were frozen at -70° C. until the time for titration. The cells were freeze/thawed 3 times to release virus from the cells, and serially diluted 10 fold.
1×10^5 Vero cells were plated in each well of 24 well multi-dish in 1 ml RPMI-1640+5% FCS+P/S+0.1% methylcellulose (15 cps). On the second day, after removal of the medium, the 10 fold serially diluted virus in 100 μl was added in duplicate. […] The plaques formed were counted and the titer was calculated from the fold of dilutions.

rhinovirus = test: Inhibition of rhinovirus cytopathic effect in Vero cells; format: cell-based; details: 1-100 μg, 24 h
Experimental: as §1

HSV-2 [1] = test: Topical treatment of genital HSV-2 infection, guinea pigs, second study; details: for % Animals with Lesions / Lesion Score (AUC) / Mean Peak lesion score: 24 h
Experimental: In another study using the guinea pig genital model described above, animals were infected with HSV-2, then treated with KY-1 or Y-1 topically at concentrations of 2% or 5% drug. […] Animals were treated and scored daily for severity of infection for 19 days.
The MS strain of HSV-2 was utilized for the experimental animal infection. Female Hartley strain guinea pigs (Charles River Breeding Laboratories, Kingston, NY) weighing 250-300 g were inoculated intravaginally with 2.0×10^5 plaque-forming units of HSV-2 one hour after being swabbed for removal of vaginal secretions.
Formulations of KY-1 or Y-1 were prepared by dissolving the compound in a 1.5% methyl cellulose solution such that final concentration of compound was 2% or 5% (wt/wt). Control animals were given either no treatment (N=10 animals) or treatment with placebo (1.5% methylcellulose solution).
To determine the effect of therapy on the development and spread of external genital lesions, lesion severity was scored on a 0-5+ scale through the primary infection period (19-21 days). Lesion score-day areas and virus titer-day areas under the curve, and peak lesion scores and peak virus titers between untreated and placebo-treated or placebo-treated and drug-treated animals were compared using the Mann-Whitney U range sum test. A p-value of 0.05 or less was considered significant.
Animals were scored daily for 19 days following inoculation for presence of lesions and severity of lesions (on a 0-5+ point scale). Lesion scores were tabulated as area under the curve of daily lesion score vs. time (days) and peak lesion score observed. A known antiviral agent, acyclovir (ACV) was administered in a 5% formulation to 8 animals as a positive control in the study.

HIV-HXB = test: Inhibition of syncytia formation, HIV-HXB (HTLV-IIIB); details: Human immunodeficiency virus 1, 18 h, read-out: HIV-HXB ED100, complete inhibition of syncytia formation
Experimental: Briefly, cells chronically infected with HTLV-IIIB or RF-II HIV strains were incubated in the presence of serial dilutions of the selected KY compound, then further cocultured with indicator cells. The extent of syncytia formation was scored under phase microscopy.
Representative calix(n)arene compounds from Table 2 were tested for inhibition of cytopathic effects in cells infected with one of two HTLV-III strains, HTLV-IIIB and RF-II strains, as described in Example 12, and in the subsection above.
Human CD4^+ indicator cells (VB) and chronically infected H9 cells were maintained in RPMI-1640 medium supplemented with 5% fetal calf serum, 100 Units of penicillin per ml and 100 μg of streptomycin per ml at 37° C. in a humidified incubator containing 7% CO2.
For the fusion assay, serial dilutions between 1:2 and 1:2^8 of a selected KY compound, 1 mg/ml in PBS were made in a 96 well round bottom plate. The diluted KY compound was transferred to a 96 well flat-bottom plate. To each well was added 25 μg chronically infected H9 cells (at 2×10^6, cells/ml), or cells chronically infected with RF-II strain HIV, followed by incubation at 37° C. for 45 minutes. To each well was then added 25 μl VB cells (about 5×10^4 cells), and the cells and virus isolates were cocultured for 18 hours in a humid 5% CO2 atmosphere.

HSV-1 KOS = test: Inhibition of viral yield, wild type HSV-1 KOS; details: Human alphaherpesvirus 1, HeLa, read-out: ID90
Experimental: (§2) These compounds tested were the nucleoside analogs acyclovir (ACV), ganciclovir (DHPG), phosphonoformate (PFA), and phosphomethoxyethyladenine (PMEA). Inhibition of viral yield was determined, as above, by infecting Hela cells in the presence of wild type or drug-resistant strains of HSV-1 or HSV-2, and serial dilutions of a selected anti-viral compound, and infecting Vero cells with serial dilutions of the Hela cell lysate, as above.
(§3) The KOS (HSV-1) and 333 (HSV-2) are wild type viruses; the KOS(PMEA)' and KOS(PFA)' are drug-resistant HSV-1 strains having a DNA polymerase mutation. The 333(DHPG) strain is a drug-resistantHSV-2 strain having a thymidine kinase mutation.
(§4) The following strains of HSV-1 and HSV-2 virus were used: KOS, a wild type HSV-1 virus; KOS (PMEA) and KOS (PFA), both drug-resistant HSV-1 viruses having a DNA polymerase mutation; 333, a wild type HSV-2 HSV-2 virus, and 333 (DHPG), a drug-resistant HSV-2 virus having a thymidine kinase mutation.
(§5) After growth at 37° C. for 24 hours in 2 ml of RPMI-1640 containing 2% FCS and penicillin and streptomycin (P/S), the cells were frozen at -70° C. until the time for titration. The cells were freeze/thawed 3 times to release virus from the cells, serially diluted 10 fold, and the serial dilutions were added to Vero cells in culture. After 2 hours incubation at 37° C. the virus was removed and 0.5 ml methycellulose (4K cps) in RPMI-1640 and 2% FCS+P/S was added. Two days later, the medium was removed. The cells were stained in 0.8% crystal violet in 50% ethanol. The plaques formed were counted and the titer was calculated from the fold of dilutions. From the drug dose response, the concentration of each drug required to effect a 90% inhibition of virus yield, the IC90 concentration was determined.

HSV-1 KOS(PMEA)' = test: Inhibition of viral yield, drug-resistant HSV-1 KOS(PMEA)'; details: Human alphaherpesvirus 1, HeLa, read-out: ID90
Experimental: as §2, §3, §4, §5

HSV-2 333 (DHPG)' = test: Inhibition of viral yield, drug-resistant HSV-2 333(DHPG)'; details: Human alphaherpesvirus 2, HeLa, read-out: ID90
Experimental: as §2, §3, §4, §5

HSV-1 [2] = test: Inactivation of purified HSV-1 by compound, plaque number after serial dilution; details: for Plaque number, dilution 10^2 / Plaque number, dilution 10^3 / Plaque number, dilution 10^4 / Plaque number, dilution 10^5 / Plaque number, dilution 1 / Plaque number, dilution 10^1: 10 μg/ml, duplicate
Experimental: In a third study, purified HSV-1 virus suspensions were incubated with KY-1 or the sodium salt thereof, or a control solution for 1 hour, then serially diluted to drug concentrations between 10^1 to 10^-4 μg/ml as described in Example 16. The "X" symbol in the table indicates plaques too numerous to count.
Purified HSV-1 was suspended in RPMI-1640 medium (Gibco Laboratories) containing 2% FCS, penicillin and streptomycin. […] The suspensions were incubated for 1 hour at 37° C., then diluted serially at 10 fold dilutions to final drug concentrations of 10, 10^0, 10^-1, 10^-2, 10^-3 and 10^-4 μg/ml drug concentrations The serially diluted particles were then added to Vero cells for two hours, as in Example 6, and the cells examined for plaques 48 hours later.

HSV-1 [3] = test: Plaque reduction assay, HSV-1, Vero cells; format: cell-based, HSV-1 (Kos-1); details: Human alphaherpesvirus 1, Vero, plaque reduction, Vero cells
[4] = test system: HSV glycoproteins gD, gB, and gC; test: Identification of KY-1 binding proteins; set-up: species or system HSV-1; details: FIG. 32B
Source text: In a fourth study, the binding of radiolabeled KY-1 compound to HSV-1 and HSV-2 viral proteins was examined. After compound binding, virus proteins were fractionated by sodium dodecyl sulfate polyacrylamide gel electrophoresis (SDS-PAGE), and the gel patterns developed by autoradiography. In FIG. 32A, lanes A and B in the figure are autoradiographs of HSV-1 proteins in the presence ([…]) and absence (lane B) of mercaptoethanol, and lanes C and D, analogous patterns for HSV-2 proteins. The lane at the right contains the molecular weight markers, as indicated. The major bands of drug binding in HSV-1 have molecular weights, as determined from SDS-PAGE, of 45, 66, and about 130 kilodaltons.
HSV-1 and HSV-2 virus suspensions were solubilized with SDS and fractionated on SDS-PAGE as above. Each sample was run in triplicate, corresponding to groups D, B, and C in FIG. 32B. The two gels in each group were analyzed by Western blotting as follows: The gels in groups D, B, and C were first reacted with mouse monoclonal antibody specific against HSV glycoprotein gD, gB, and dC, respectively. The antibodies were obtained from Dr. S. Chatterjee from the University of Alabama. The gels were then incubated with alkaline phosphatase-labeled goat antimouse antibody, to label the glycoprotein in each group. […]

HSV-2 [5] = test: Plaque reduction assay, HSV-2, Vero cells; format: cell-based, HSV-2 (333); details: Human alphaherpesvirus 2, Vero
HSV-2 333 = test: Inhibition of viral yield, wild type HSV-2 333; details: Human alphaherpesvirus 2, HeLa, read-out: ID90
Experimental: as §2, §3, §4, §5

HSV-1 KOS (PFA)' = test: Inhibition of viral yield, drug-resistant HSV-1 KOS(PFA)'; details: Human alphaherpesvirus 1, HeLa, read-out: ID90
Experimental: as §2, §3, §4, §5

RSV = test: Inhibition of RSV cytopathic effect in HEp2 cells; format: cell-based; details: human respiratory syncytial virus, HEp-2, read-out: ED50 RSV

In the case of `O=S(=O)(O)c1cc2cc(S(=O)(=O)O)c3c(O)c2c(O)c1Cc1c(S(=O)(=O)O)cc2cc(S(=O)(=O)O)c(c(O)c2c1O)Cc1c(S(=O)(=O)O)cc2cc(S(=O)(=O)O)c(c(O)c2c1O)Cc1c(S(=O)(=O)O)cc2cc(S(=O)(=O)O)c(c(O)c2c1O)C3` [KY-1], the “reduction in cell clumping, adenovirus” value (adenovirus) is reported as “No reduction in cell clumping”, the “dose dependent drop in viral yield” value (HSV-1 and HSV-2) is reported as 3-5 orders of magnitude and the “reduction in cell clumping, rhinovirus” value (rhinovirus) is reported as “No reduction in cell clumping”. For the same compound, the “% Animals with Lesions” value (HSV-2 [1]; 2%) was 70%, the “Lesion Score (AUC)” value (HSV-2 [1]; 2%) was 16.2 and the “Mean Peak lesion score” value (HSV-2 [1]; 2%) was 2.2. For the same compound, the “% Animals with Lesions” value (HSV-2 [1]; 6%) was 50%, the “Lesion Score (AUC)” value (HSV-2 [1]; 6%) was 17.5 and the “Mean Peak lesion score” value (HSV-2 [1]; 6%) was 1.7. For the same compound, the “lesions, in words” value (HSV-2 [1]; 24 hours post-infection, 6% KY-1 or Y-1, 2% KY-1) was “reduced numbers of lesion bearing animals and reduced severity of lesions”, the EC100 (HIV-HXB) was 8 µg/mL and the IC90 (HSV-1 KOS) was 1.9 µg/mL (≈ 1.43 µM). The IC90 (HSV-1 KOS(PMEA)') was 2.6 µg/mL (≈ 1.96 µM), the IC90 (HSV-2 333 (DHPG)') was 3.7 µg/mL (≈ 2.78 µM) and the “Plaque number, dilution 10^2” value (HSV-1 [2]; 0.3 pfu/cell) was 0,0. For the same compound, the “Plaque number, dilution 10^3” value (HSV-1 [2]; 0.3 pfu/cell) was 0,0, the “Plaque number, dilution 10^4” value (HSV-1 [2]; 0.3 pfu/cell) was 0,0 and the “Plaque number, dilution 10^5” value (HSV-1 [2]; 0.3 pfu/cell) was 0,0. The “Plaque number, dilution 1” value (HSV-1 [2]; 0.3 pfu/cell, listed as KY 1) was 3,2, the “Plaque number, dilution 10^1” value (HSV-1 [2]; 0.3 pfu/cell, listed as KY 1) was 0,0 and the “Plaque number, dilution 10^4” value (HSV-1 [2]; 3 pfu/cell) was 0,0. The “Plaque number, dilution 10^5” value (HSV-1 [2]; 3 pfu/cell) was 0,0, the “Plaque number, dilution 1” value (HSV-1 [2]; 3 pfu/cell, listed as KY 1) was 2,2 and the “Plaque number, dilution 10^1” value (HSV-1 [2]; 3 pfu/cell, listed as KY 1) was 2,1. The “Plaque number, dilution 10^2” value (HSV-1 [2]; 3 pfu/cell, listed as KY 1) was 17,16, the “Plaque number, dilution 10^3” value (HSV-1 [2]; 3 pfu/cell, listed as KY 1) was 5,2 and the “final drug concentration with complete virus inhibition” value (HSV-1 [2]; after dilution of treated virus) was 10^-2 to 10^-4 μg/ml. For the same compound, the IC50 (HSV-1 [3]) was 2.7 µg/mL (≈ 2.03 µM), the “proteins bound (major bands)” value [4] was “correspond in molecular weight, to HSV glycoproteins gD, gB, and gC” and the IC50 (HSV-2 [5]) was 1.7 µg/mL (≈ 1.28 µM). It also gave an IC90 (HSV-2 333) of 3.2 µg/mL (≈ 2.41 µM), an IC90 (HSV-1 KOS (PFA)') of 4.3 µg/mL (≈ 3.23 µM) and an EC50 (RSV) of 0.19 µg/mL (≈ 0.143 µM).
